Experimental data as given in ChEMBL document CHEMBL1201862, “PubChem BioAssay data set” (2004).
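1) Cells in 96-well plates. 2) Compound, 48 h, 5 concentrations. 3) Linear interpolation between surrounding doses. 4) Unreached endpoint = highest concentration. The concentration for 50% growth inhibition is given as GI50.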 Active and inactive are the calls of the source. No stated cut-off is given here; in the data, active = GI50 up to about 1.1 µM and inactive = higher.

How the values were obtained:
Assay in all cases: growth of human tumour cells (NCI), 48 h
[1] = tested on: 786-0
[2] = tested on: A498
[3] = tested on: A549
[4] = tested on: ACHN
[5] = tested on: BT-549
[6] = tested on: CAKI-1
[7] = tested on: CCRF-CEM
[8] = tested on: COLO 205
[9] = tested on: DU-145
[10] = tested on: EKVX
[11] = tested on: HCC 2998
[12] = tested on: HCT-116
[13] = tested on: HCT-15
[14] = tested on: HL-60
[15] = tested on: HOP-62
[16] = tested on: HOP-92
[17] = tested on: HT-29
[18] = tested on: Hs-578T
[19] = tested on: IGROV-1
[20] = tested on: K562
[21] = tested on: KM12
[22] = tested on: LOX IMVI
[23] = tested on: M14
[24] = tested on: MCF7
[25] = tested on: MDA-MB-231
[26] = tested on: MDA-MB-435
[27] = tested on: MDA-N
[28] = tested on: MOLT-4
[29] = tested on: Malme-3M
[30] = tested on: NCI-H226
[31] = tested on: NCI-H23
[32] = tested on: NCI-H460
[33] = tested on: NCI-H522
[34] = tested on: NCI/ADR-RES
[35] = tested on: OVCAR-3
[36] = tested on: OVCAR-4
[37] = tested on: OVCAR-5
[38] = tested on: OVCAR-8
[39] = tested on: PC-3
[40] = tested on: RPMI-8226
[41] = tested on: RXF 393
[42] = tested on: SF-268
[43] = tested on: SF-295
[44] = tested on: SF-539
[45] = tested on: SK-MEL-28
[46] = tested on: SK-MEL-2
[47] = tested on: SK-MEL-5
[48] = tested on: SK-OV-3
[49] = tested on: SN12C
[50] = tested on: SNB-19
[51] = tested on: SNB-75
[52] = tested on: SR
[53] = tested on: SW-620
[54] = tested on: T47D
[55] = tested on: TK-10
[56] = tested on: U-251
[57] = tested on: UACC-257
[58] = tested on: UACC-62
[59] = tested on: UO-31

COc1cc(C2c3cc4c(cc3OC(NNc3ccccc3)C2C)OCO4)cc(OC)c1O (configuration not stated)
GI50 [1]: 3180 nM (inactive)
GI50 [2]: 3850 nM (inactive)
GI50 [3]: 1410 nM (inactive)
GI50 [4]: 159 nM (active)
GI50 [5]: 11400 nM (inactive)
GI50 [6]: 3330 nM (inactive)
GI50 [7]: 463 nM (active)
GI50 [8]: 2930 nM (inactive)
GI50 [9]: 2620 nM (inactive)
GI50 [10]: 7800 nM (inactive)
GI50 [11]: 331 nM (active)
GI50 [12]: 1520 nM (inactive)
GI50 [13]: 313 nM
GI50 [14]: 1260 nM (inactive)
GI50 [15]: 5660 nM (inactive)
GI50 [16]: 9200 nM (inactive)
GI50 [17]: 1230 nM (inactive)
GI50 [18]: 2830 nM (inactive)
GI50 [19]: 3200 nM (inactive)
GI50 [20]: 89.3 nM (active)
GI50 [21]: 251 nM (active)
GI50 [22]: 49 nM (active)
GI50 [23]: 255 nM (active)
GI50 [24]: 2700 nM (inactive)
GI50 [25]: 1120 nM (inactive)
GI50 [26]: 204 nM (active)
GI50 [27]: 294 nM (active)
GI50 [28]: 275 nM (active)
GI50 [29]: 3420 nM (inactive)
GI50 [30]: 3560 nM (inactive)
GI50 [31]: 5600 nM (inactive)
GI50 [32]: 337 nM (active)
GI50 [33]: 561 nM (active)
GI50 [34]: 1070 nM (active)
GI50 [35]: 2360 nM (inactive)
GI50 [36]: 13300 nM (inactive)
GI50 [37]: 3210 nM (inactive)
GI50 [38]: 1520 nM (inactive)
GI50 [39]: 815 nM (active)
GI50 [40]: 995 nM (active)
GI50 [41]: 1920 nM (inactive)
GI50 [42]: 2580 nM (inactive)
GI50 [43]: 813 nM (active)
GI50 [44]: 596 nM (active)
GI50 [45]: 4220 nM (inactive)
GI50 [46]: 724 nM (active)
GI50 [47]: 1300 nM (inactive)
GI50 [48]: 3790 nM (inactive)
GI50 [49]: 540 nM (active)
GI50 [50]: 6640 nM (inactive)
GI50 [51]: 2330 nM (inactive)
GI50 [52]: 207 nM (active)
GI50 [53]: 2590 nM (inactive)
GI50 [54]: 757 nM (active)
GI50 [55]: 4630 nM (inactive)
GI50 [56]: 2550 nM (inactive)
GI50 [57]: 1480 nM (inactive)
GI50 [58]: 132 nM (active)
GI50 [59]: 1030 nM (active)

[N-]=[N+]=Nc1ccc(CNc2cc(=O)[nH]c(=O)[nH]2)cc1
GI50 [1]: > 100000 nM (inactive)
GI50 [2]: > 100000 nM (inactive)
GI50 [3]: > 100000 nM (inactive)
GI50 [4]: > 100000 nM (inactive)
GI50 [5]: > 100000 nM (inactive)
GI50 [6]: > 100000 nM (inactive)
GI50 [7]: > 100000 nM (inactive)
GI50 [8]: > 100000 nM (inactive)
GI50 [9]: > 100000 nM (inactive)
GI50 [10]: > 100000 nM (inactive)
GI50 [11]: > 100000 nM (inactive)
GI50 [12]: > 100000 nM (inactive)
GI50 [13]: > 100000 nM
GI50 [14]: > 100000 nM (inactive)
GI50 [15]: > 100000 nM (inactive)
GI50 [16]: > 100000 nM (inactive)
GI50 [17]: > 100000 nM (inactive)
GI50 [18]: > 100000 nM (inactive)
GI50 [19]: > 95700 nM (inactive)
GI50 [20]: > 100000 nM (inactive)
GI50 [21]: > 100000 nM (inactive)
GI50 [22]: > 100000 nM (inactive)
GI50 [23]: > 100000 nM (inactive)
GI50 [24]: > 100000 nM (inactive)
GI50 [25]: > 100000 nM (inactive)
GI50 [26]: > 49200 nM (inactive)
GI50 [27]: > 100000 nM (inactive)
GI50 [28]: > 100000 nM (inactive)
GI50 [29]: > 100000 nM (inactive)
GI50 [30]: > 100000 nM (inactive)
GI50 [31]: > 100000 nM (inactive)
GI50 [32]: > 100000 nM (inactive)
GI50 [33]: > 100000 nM (inactive)
GI50 [34]: > 100000 nM (inactive)
GI50 [35]: > 100000 nM (inactive)
GI50 [36]: > 100000 nM (inactive)
GI50 [37]: > 100000 nM (inactive)
GI50 [38]: > 100000 nM (inactive)
GI50 [39]: > 100000 nM (inactive)
GI50 [40]: > 100000 nM (inactive)
GI50 [41]: > 100000 nM (inactive)
GI50 [42]: > 100000 nM (inactive)
GI50 [43]: > 100000 nM (inactive)
GI50 [44]: > 100000 nM (inactive)
GI50 [45]: > 50700 nM (inactive)
GI50 [46]: > 100000 nM (inactive)
GI50 [47]: > 100000 nM (inactive)
GI50 [48]: > 100000 nM (inactive)
GI50 [49]: > 100000 nM (inactive)
GI50 [50]: > 100000 nM (inactive)
GI50 [51]: > 100000 nM (inactive)
GI50 [52]: > 100000 nM (inactive)
GI50 [53]: > 64100 nM (inactive)
GI50 [54]: > 100000 nM (inactive)
GI50 [55]: > 100000 nM (inactive)
GI50 [56]: > 100000 nM (inactive)
GI50 [57]: > 100000 nM (inactive)
GI50 [58]: > 100000 nM (inactive)
GI50 [59]: > 100000 nM (inactive)

CC(=O)Nc1c2sscc-2n(C)c1=O [THIOLUTIN]
GI50 [1]: 1520 nM (inactive)
GI50 [2]: 1860 nM (inactive)
GI50 [3]: 1550 nM (inactive)
GI50 [4]: 984 nM (active)
GI50 [5]: 1430 nM (inactive)
GI50 [6]: 1890 nM (inactive)
GI50 [7]: 282 nM (active)
GI50 [8]: 596 nM (active)
GI50 [9]: 634 nM (active)
GI50 [10]: 1870 nM (inactive)
GI50 [11]: 587 nM (active)
GI50 [12]: 695 nM (active)
GI50 [13]: 1320 nM
GI50 [14]: 512 nM (active)
GI50 [15]: 1670 nM (inactive)
GI50 [16]: 2230 nM (inactive)
GI50 [17]: 272 nM (active)
GI50 [18]: 2600 nM (inactive)
GI50 [19]: 1860 nM (inactive)
GI50 [20]: 1520 nM (inactive)
GI50 [21]: 1320 nM (inactive)
GI50 [22]: 1860 nM (inactive)
GI50 [23]: 314 nM (active)
GI50 [24]: 630 nM (active)
GI50 [25]: 1730 nM (inactive)
GI50 [26]: 1010 nM (active)
GI50 [27]: 1560 nM (inactive)
GI50 [28]: 152 nM (active)
GI50 [29]: 787 nM (active)
GI50 [30]: 1890 nM (inactive)
GI50 [31]: 853 nM (active)
GI50 [32]: 537 nM (active)
GI50 [33]: 1300 nM (inactive)
GI50 [34]: 1160 nM (inactive)
GI50 [35]: 1820 nM (inactive)
GI50 [36]: 1560 nM (inactive)
GI50 [37]: 1600 nM (inactive)
GI50 [38]: 638 nM (active)
GI50 [39]: 1580 nM (inactive)
GI50 [40]: 575 nM (active)
GI50 [41]: 1710 nM (inactive)
GI50 [42]: 1560 nM (inactive)
GI50 [43]: 1350 nM (inactive)
GI50 [44]: 1860 nM (inactive)
GI50 [45]: 1370 nM (inactive)
GI50 [46]: 1880 nM (inactive)
GI50 [47]: 1330 nM (inactive)
GI50 [48]: 1200 nM (inactive)
GI50 [49]: 1870 nM (inactive)
GI50 [50]: 1960 nM (inactive)
GI50 [51]: 1670 nM (inactive)
GI50 [52]: 235 nM (active)
GI50 [53]: 664 nM (active)
GI50 [54]: 1580 nM (inactive)
GI50 [55]: 2150 nM (inactive)
GI50 [56]: 1120 nM (active)
GI50 [57]: 1570 nM (inactive)
GI50 [58]: 443 nM (active)
GI50 [59]: 2100 nM (inactive)
